This note sets out measurements from PubChem BioAssay AID328 (DTP/NCI, 2004).

The test relates to BDF1 mice, P388 leukemia ip, median survival T/C. The experiment in a line: NCI In Vivo Anticancer Drug Screen. Data for tumor model P388 Leukemia (intraperitoneal) in B6D2F1 (BDF1) mice. The note with it: endpoint: median survival time, higher = longer survival. In short, it runs like this:
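Antitumour effect was judged in vivo: survival in drug-treated mice, normalised to that of vehicle-dosed controls, gives the reported T/C.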

Several values for one entry are separate records, joined by “and”; a condition that tells them apart may be missing. Equal values may be shown once. Inconclusive results and toxic doses are left out.

For the compound `CCCCCCCCCCCCCC(=O)O[C@@H]1[C@@H](C)[C@@]2(O)[C@@H](C=C(CO)C[C@]3(OC)C(=O)C(C)=C[C@@H]23)[C@@H]2C(C)(C)[C@]12OC(C)=O`, the T/C was 91 % of control (dose: 0.03 mg/kg/injection, schedule: Q01DX009 (ip), vehicle: saline + alcohol); 91 % of control (dose: 0.06 mg/kg/injection, schedule: Q01DX009 (ip), vehicle: Klucel (hydroxypropylcellulose) (HPC)); 94 % of control (dose: 0.06 mg/kg/injection, schedule: Q01DX009 (ip), vehicle: saline + alcohol); 94 % of control (dose: 0.12 mg/kg/injection, schedule: Q01DX009 (ip), vehicle: Klucel (hydroxypropylcellulose) (HPC)); 117 % of control (dose: 0.12 mg/kg/injection, schedule: Q01DX009 (ip), vehicle: saline + alcohol); 94 % of control (dose: 0.25 mg/kg/injection, schedule: Q01DX009 (ip), vehicle: Klucel (hydroxypropylcellulose) (HPC)). Moreover, the T/C (dose: 0.25 mg/kg/injection, schedule: Q01DX009 (ip), vehicle: saline + alcohol) was 94 % of control; the T/C (dose: 0.5 mg/kg/injection, schedule: Q01DX009 (ip), vehicle: Klucel (hydroxypropylcellulose) (HPC)) is 110 % of control; the T/C (dose: 0.5 mg/kg/injection, schedule: Q01DX009 (ip), vehicle: saline + alcohol) is 107 % of control; the T/C (dose: 1.0 mg/kg/injection, schedule: Q01DX009 (ip), vehicle: Klucel (hydroxypropylcellulose) (HPC)) was 94 % of control; the T/C (dose: 1.0 mg/kg/injection, schedule: Q01DX009 (ip), vehicle: saline + alcohol) was 100 % of control; the T/C (dose: 3.1 micrograms/kg/injection, schedule: Q01DX009 (ip), vehicle: gum acacia) is 106 % of control. For the same compound, the T/C by setting is: (dose: 3.1 micrograms/kg/injection, schedule: Q01DX009 (ip), vehicle: saline + alcohol) 94 % of control; (dose: 3.1 micrograms/kg/injection, schedule: Q01DX009 (ip), vehicle: saline with Tween-80) 87 % of control; (dose: 6.2 micrograms/kg/injection, schedule: Q01DX009 (ip), vehicle: gum acacia) 97 % of control; (dose: 6.2 micrograms/kg/injection, schedule: Q01DX009 (ip), vehicle: saline + alcohol) 87 % of control; (dose: 6.2 micrograms/kg/injection, schedule: Q01DX009 (ip), vehicle: saline with Tween-80) 97 % of control; (dose: 12.5 micrograms/kg/injection, schedule: Q01DX009 (ip), vehicle: gum acacia) 87 % of control. Also, the T/C runs as follows: (dose: 12.5 micrograms/kg/injection, schedule: Q01DX009 (ip), vehicle: saline + alcohol) 94 % of control; (dose: 12.5 micrograms/kg/injection, schedule: Q01DX009 (ip), vehicle: saline with Tween-80) 160 % of control; (dose: 25.0 micrograms/kg/injection, schedule: Q01DX009 (ip), vehicle: saline + alcohol) 103 % of control; (dose: 25.0 micrograms/kg/injection, schedule: Q01DX009 (ip), vehicle: saline with Tween-80) 103 % of control; (dose: 50.0 micrograms/kg/injection, schedule: Q01DX009 (ip), vehicle: gum acacia) 122 % of control; (dose: 50.0 micrograms/kg/injection, schedule: Q01DX009 (ip), vehicle: saline + alcohol) 101 % of control. Moreover, the T/C (dose: 50.0 micrograms/kg/injection, schedule: Q01DX009 (ip), vehicle: saline with Tween-80) was 87 % of control; the T/C (dose: 100.0 micrograms/kg/injection, schedule: Q01DX009 (ip), vehicle: gum acacia) is 106 % of control; the T/C (dose: 100.0 micrograms/kg/injection, schedule: Q01DX009 (ip), vehicle: saline + alcohol) is 97 % of control; the T/C (dose: 100.0 micrograms/kg/injection, schedule: Q01DX009 (ip), vehicle: saline with Tween-80) was 122 % of control; the T/C (dose: 200.0 micrograms/kg/injection, schedule: Q01DX009 (ip), vehicle: gum acacia) is 113 % of control; the T/C (dose: 200.0 micrograms/kg/injection, schedule: Q01DX009 (ip), vehicle: saline + alcohol) is 97 % of control. For the same compound, the T/C is, setting by setting: (dose: 200.0 micrograms/kg/injection, schedule: Q01DX009 (ip), vehicle: saline with Tween-80) 106 % of control; (dose: 400.0 micrograms/kg/injection, schedule: Q01DX009 (ip), vehicle: gum acacia) 160 % of control; (dose: 400.0 micrograms/kg/injection, schedule: Q01DX009 (ip), vehicle: saline + alcohol) 94 % of control; (dose: 400.0 micrograms/kg/injection, schedule: Q01DX009 (ip), vehicle: saline with Tween-80) 94 % of control; (dose: 800.0 micrograms/kg/injection, schedule: Q01DX009 (ip), vehicle: gum acacia) 94 % of control; (dose: 800.0 micrograms/kg/injection, schedule: Q01DX009 (ip), vehicle: saline + alcohol) 106 % of control. Also, the T/C (dose: 800.0 micrograms/kg/injection, schedule: Q01DX009 (ip), vehicle: saline with Tween-80) is 169 % of control.

Take `COc1cc2c(c3c1c(=O)c1cc(O)ccc1n3C)C=CC(C)(C)O2`: the T/C is 114 % of control (dose: 5.0 mg/kg/injection, schedule: Q01DX009 (ip), vehicle: Klucel (hydroxypropylcellulose) (HPC)); 113 % of control (dose: 10.0 mg/kg/injection, schedule: Q01DX009 (ip), vehicle: Klucel (hydroxypropylcellulose) (HPC)); 112 % of control (dose: 20.0 mg/kg/injection, schedule: Q01DX009 (ip), vehicle: Klucel (hydroxypropylcellulose) (HPC)); 106 % of control (dose: 40.0 mg/kg/injection, schedule: Q01DX009 (ip), vehicle: Klucel (hydroxypropylcellulose) (HPC)).

For the compound `O=C(Nc1[nH]nc2nccnc12)C(F)(F)F`, the T/C is 109 % of control (dose: 100.0 mg/kg/injection, schedule: Q04DX003 (ip), vehicle: saline with Tween-80); 104 % of control (dose: 200.0 mg/kg/injection, schedule: Q04DX003 (ip), vehicle: saline with Tween-80); 118 % of control (dose: 400.0 mg/kg/injection, schedule: Q04DX003 (ip), vehicle: saline with Tween-80).

Take `CCC1CC2CN(CCc3c([nH]c4ccccc34)C(C(=O)OC)(c3cc4c(cc3OC)N(C)C3C(O)(C(=O)OC)C(OC(C)=O)C5(CC)C=CCN6CCC43C65)C2)C1` (stereo not given): the T/C is, setting by setting: (dose: 0.06 mg/kg/injection, schedule: Q01DX009 (ip), vehicle: water) 90 % of control; (dose: 0.12 mg/kg/injection, schedule: Q01DX009 (ip), vehicle: water) 90 % of control and 100 % of control; (dose: 0.25 mg/kg/injection, schedule: Q01DX009 (ip), vehicle: water) 95 % of control and 100 % of control; (dose: 0.5 mg/kg/injection, schedule: Q01DX009 (ip), vehicle: water) 90 % of control and 100 % of control; (dose: 1.0 mg/kg/injection, schedule: Q01DX009 (ip), vehicle: water) 90 % of control and 95 % of control and 100 % of control; (dose: 2.0 mg/kg/injection, schedule: Q01DX009 (ip), vehicle: water) 90 % of control and 95 % of control. Further, the T/C is, setting by setting: (dose: 4.0 mg/kg/injection, schedule: Q01DX009 (ip), vehicle: water) 100 % of control; (dose: 8.0 mg/kg/injection, schedule: Q01DX009 (ip), vehicle: water) 100 % of control and 90 % of control.

In the case of `CCOC(=O)C(C(=O)OCC)C1C=CCC1` (stereo not given), the T/C is 100 % of control (dose: 100.0 mg/kg/injection, schedule: Q01DX009 (ip), vehicle: Klucel (hydroxypropylcellulose) (HPC)); 95 % of control (dose: 100.0 mg/kg/injection, schedule: Q04DX003 (ip), vehicle: Klucel (hydroxypropylcellulose) (HPC)); 104 % of control (dose: 200.0 mg/kg/injection, schedule: Q01DX009 (ip), vehicle: Klucel (hydroxypropylcellulose) (HPC)); 116 % of control (dose: 200.0 mg/kg/injection, schedule: Q04DX003 (ip), vehicle: Klucel (hydroxypropylcellulose) (HPC)); 109 % of control (dose: 400.0 mg/kg/injection, schedule: Q01DX009 (ip), vehicle: Klucel (hydroxypropylcellulose) (HPC)); 100 % of control (dose: 400.0 mg/kg/injection, schedule: Q04DX003 (ip), vehicle: Klucel (hydroxypropylcellulose) (HPC)).

On to `O=S(=O)(O)O.O=S(=O)([O-])[O-].O=[N+]([O-])O.[Co+3].[Co+3].[NH2-].[NH2-].[NH2-].[NH2-].[NH2-].[NH2-].[NH2-].[NH2-].[NH2-]`, for which the T/C was 97 % of control (dose: 6.25 mg/kg/injection, schedule: Q01DX009 (ip), vehicle: water) and 124 % of control (dose: 12.5 mg/kg/injection, schedule: Q01DX009 (ip), vehicle: water).
